Columns and labels:
mouse skin [1] = test: Cytokines in mouse skin culture supernatant after epicutaneous treatment; type: in vivo, C57BL/6 WT, MyD88-ko, 5xTLR-ko mice; details: 1.5 µg lugdunin epicutaneous 24 h; for MIP-2 concentration in skin culture supernatant: Fig 2e; for IL-1α concentration in skin culture supernatant: Fig 2d
Experimental: Fig. 2 Induction of chemokine (C-X-C motif) ligand 8/macrophage inflammatory protein-2 (CXCL8/MIP-2) by lugdunin is TLR2/MyD88-dependent. a HEK-control or HEK-TLR2 cells were treated with 2 μM lugdunin for 5 h and subsequently the CXCL8 concentration in the supernatant was analyzed by LEGENDplex^TM (BioLegend). Shown is one representative experiment of three independent experiments with two technical replicates ± s.e.m. b HEK-control or HEK-TLR2 cells were treated with increasing concentrations of lugdunin for 5 h and subsequently expression of CXCL8 was analyzed and normalized to actin. Shown is one representative experiment of three independent experiments with two technical replicates ± s.e.m. c Schematic overview of the mouse experiments: 6–8-week-old female C5BL/6 WT, MyD88-knockout (ko), or 5xTLR-ko mice were epicutaneously treated with 1.5 µg lugdunin or phosphate-buffered saline (PBS) as a control. After 24 h, mice were euthanized, 4 mm skin punches were taken, and further cultured in vitro for 10 h followed by cytokine analysis of the culture supernatant by LEGENDplex^TM (BioLegend). d, e Shown are the mean concentrations of IL-1α (d) or MIP-2 (e) in the skin culture supernatant of two skin punches from four mice each ± s.e.m. Significant differences to control treatments were analyzed by an unpaired two-tailed t test (*P < 0.05; **P < 0.01; ***P < 0.001). f Representative MIP-2-stained paraffin-embedded mouse skin sections. Scale bar, 100 µM. Source data are provided as a Source Data file
For cytokine analysis from cell cultures, 10 µL of supernatant was used for cytokine analysis via the LEGENDplex^TM human inflammation panel (BioLegend). For cytokine analysis from mouse skin, 4 mm skin punches were cultured in an airlift system where only the dermis had access to medium for 10 h. Skin punches were cultured in RPMI containing 1% FCS (Biochrom/Merck Millipore), 1% penicillin and streptomycin (Gibco/Life Technologies) and 0.25 µg/mL amphotericin B (CELLnTEC). Ten microliters of a 3-fold dilution of culture supernatant was used for cytokine analysis via the LEGENDplex^TM mouse inflammation panel (BioLegend). Samples were acquired in duplicates using a BD LSRII flow cytometer (BD Biosciences) and LEGENDplex^TM Software (BioLegend).
For IL-1α analysis, 100 µL of cell culture supernatant was analyzed via ELISA (R&D Systems) according to manufacturer’s instruction. For MIP-2 analysis, 100 µL of a 5-fold dilution from skin cultures supernatant was used and analyzed via ELISA (R&D Systems) according to the manufacturer’s instruction. For LL-37 ELISA, ELISA plates (Nunc) were coated overnight at 4 °C with 100 µL of cell culture supernatant or 2-fold dilutions of LL-37 starting from 8 µg/mL. The next day, the plate was washed three times using PBS + 0.5% BSA + 0.05% Triton X-100, followed by incubation with 100 µL primary antibody against hCAP18/LL-37 (HycultBiotech, Cat#HM2071, 1:120 in PBS + 0.5% BSA + 0.05% Triton X-100) at 37 °C for 1 h. After washing, incubation with 100 µL secondary antibody (Cell Signaling, Cat#7076S, 1:3000 in PBS + 0.5% BSA + 0.05% Triton X-100) followed at 37 °C for 1 h. Subsequently, plates were washed and 100 µL TMB substrate solution (Cell Signaling) was added. Reaction was stopped with 50 µL 2 N H2SO4 and absorbance at 450 nm was measured using a Fluoroskan II (Labsystems).
To analyze the immune cell composition and cytokines in the skin, 15 µL containing 1.5 μg lugdunin or PBS as a control were epicutaneously applied for 24 h on the shaved back skin of C57BL/6 WT/MYD88-ko/5xTLR-ko mice. After 24 h, mice were euthanized and relevant skin areas or 4 mm skin punches were removed for immune cell analysis and LEGENDplex^TM (BioLegend) cytokine analysis. […]
55 c: Shown are the mean concentrations of the indicated cytokines in the supernatant of
56 the organ skin culture of two skin punches from four mice each +/- s.e.m. […]
61 Source data are provided as a Source Data file.

mouse skin [2] = test: Immunohistochemistry of mouse skin sections (LL-37, MIP-2, MPO); type: in vivo
Experimental: For immunohistochemical stainings of mouse skin, […] tissue sections were de-paraffinized. For MPO staining, antigen retrieval was performed in EDTA buffer at pH 9 (Thermo Fisher Scientific) for 5 min, and for MIP-2 and LL-37, citrate buffer at pH 6 for 9 min was used. Antigen retrieval was performed in a pressure cooker before a slow cooling down of the samples in the buffer. Afterwards, tissue sections were washed in PBS and blocked in 5% donkey serum in PBS containing 0.05% Triton X-100 for 90 min. For MPO staining, tissue sections were subsequently incubated overnight at 4 °C in a humid chamber with a MPO-specific antibody (R&D Systems, Cat#AF3667) diluted 1:50 in a blocking buffer. For MIP-2 and LL-37 staining, tissue sections were first incubated with primary enhancer (Lab Vision™ UltraVision™ LP Detection System, Thermo Fisher Scientific) for 20 min at room temperature, washed, and then incubated with AP polymer (Lab Vision™ UltraVision™ LP Detection System, Thermo Fisher Scientific) for 30 min at room temperature in a humid chamber, followed by incubation with the primary antibodies MIP-2 (Thermo Scientific, Cat#701126, 1:10 in blocking buffer) and LL-37 (Novus Biologicals, Cat#NB100-98689, 1:200 in blocking buffer) overnight at 4 °C in a humid chamber. The next day, tissue sections were washed and incubated with a 1:250 dilution of alkaline phosphatase-coupled secondary antibody (Novus Biologicals) for 90 min in a humid chamber at room temperature. After washing in PBS, staining was performed by using the Lab Vision^TM liquid fast red substrate system (Thermo Fisher Scientific) according to the manufacturer’s instructions. After washing in water, hematoxylin–eosin staining (Agilent/Dako) was performed for 2 min. After another washing step in water, tissue sections were mounted with Kaiser’s glycerol gelatine (Merck).

[3] = 5xTLR-ko mice, punches cultured 10 h, single punches
[4] = MyD88-ko mice, punches cultured 10 h, single punches

Which results are given for Lugdunin?
MIP-2 concentration in skin culture supernatant (mouse skin [1]; [3]): reduced; IL-1α concentration in skin culture supernatant (mouse skin [1]; [3]): still able to induce; MIP-2 concentration in skin culture supernatant (mouse skin [1]; [4]): completely impaired; IL-1α concentration in skin culture supernatant (mouse skin [1]; [4]): still able to induce; MIP-2 concentration in skin culture supernatant (mouse skin [1]; WT mice, punches cultured 10 h, single punches): induced; IL-1α concentration in skin culture supernatant (mouse skin [1]; WT mice, skin punches cultured 10 h, single punches (rows)): induced; MPO-positive cells in mouse skin sections (IHC, in words) (mouse skin [2]; epicutaneous application, Fig 3e): recruitment of MPO-positive cells into the dermis; LL-37 in mouse skin sections (IHC, in words) (mouse skin [2]; epicutaneous application, Supp Fig 1): expression of LL-37 in keratinocytes was confirmed; MIP-2 in mouse skin sections (IHC, in words) (mouse skin [2]; epicutaneous treatment, Fig 2f): MIP-2 production by keratinocytes in the epidermis and the hair follicles

Source: article PMC6588697, “Lugdunin amplifies innate immune responses in the skin in synergy with host- and microbiota-derived factors” (Nature Communications, 2019)
